Data published in patent publication US6610736B1, “16-Halogen-epothilone derivatives, method for producing them and their pharmaceutical use” (Schering AG, priority 1999, dated 2003).

Tests used:
[1] = tested on: multi-drug-resistant NCl/ADR carcinoma cell line; assay: growth inhibition of multi-drug-resistant NCl/ADR cells, crystal-violet assay; type: cell-based, human; settings: for IC50: crystal-violet assay; for Selectivity = IC50 (NCl/ADR) : IC50 (MCF-7): ratio of IC50 NCl/ADR to MCF-7; for selectivity in multi-drug-resistant cell line NCl/ADR in comparison to epothilone B: statement on Table 2
Source text: (§1) a) IC50 values [nM] for the growth inhibition of human MCF-7 breast- and multi-drug-resistant NCl/ADR carcinoma cell lines of the epothilone derivatives with 13Z-olefins in a crystal-violet assay in comparison to epothilone D.
(§2) b) IC50 values [nM] for the growth inhibition of human MCF-7 breast- and multidrug-resistant NCl/ADR carcinoma cell lines of the epothilone derivatives with 13,14-α-epoxide in a crystal-violet assay in comparison to epothilone B.

[2] = tested on: human MCF-7 breast carcinoma cell line; assay: growth inhibition of MCF-7 cells, crystal-violet assay; type: cell-based; settings: for IC50: crystal-violet assay; for active strength in comparison to reference compound epothilone B: statement on Table 2; for active strength in comparison to reference compound epothilone D: statement on Table 1
Source text: as §1, §2

[3] = Table 2, 13,14-α-epoxides, in comparison to epothilone B
[4] = Table 1, 13Z-olefins, in comparison to epothilone D

| Compound | IC50 [1, 3] [nM] | Selectivity = IC50 (NCl/ADR) : IC50 (MCF-7) ([1]; Table 2) | IC50 [2, 3] [nM] | IC50 [1, 4] [nM] | Selectivity = IC50 (NCl/ADR) : IC50 (MCF-7) ([1]; Table 1) | IC50 [2, 4] [nM] | active strength in comparison to reference compound epothilone D [2] | further results |
| --- | --- | --- | --- | --- | --- | --- | --- | --- |
| C/C1=C/C[C@@H](/C(F)=C/c2csc(C)n2)OC(=O)C[C@H](O)C(C)(C)C(=O)[C@H](C)[C@@H](O)[C@@H](C)CCC1 [Example 1, (4S,7R,8S,9S,13(Z),16S(Z))-4,8-Dihydroxy-16-(1-fluoro-2-(2-methyl-4-thiazolyl)ethenyl)-1-oxa-5,5,7,9,13-pentamethyl-cyclohexadec-13-ene-2,6-dione] |  |  |  | 12 | 2.8 | 4.3 | significantly higher active strength |  |
| C/C(=C\c1csc(C)n1)[C@@H]1C[C@@H]2O[C@]2(C)CCC[C@H](C)[C@H](O)[C@@H](C)C(=O)C(C)(C)[C@@H](O)CC(=O)O1 [Epothilone B, reference compound] | 3.5 | 5.8 | 0.6 |  |  |  |  |  |
| C/C1=C/C[C@@H](/C(C)=C/c2csc(C)n2)OC(=O)C[C@H](O)C(C)(C)C(=O)[C@H](C)[C@@H](O)[C@@H](C)CCC1 [Epothilone D] |  |  |  | 50 | 2.2 | 23 |  |  |
| C/C1=C/C[C@@H](/C(Cl)=C/c2csc(C)n2)OC(=O)C[C@H](O)C(C)(C)C(=O)[C@H](C)[C@@H](O)[C@@H](C)CCC1 [Example 5, (4S,7R,8S,9S,13(Z),16S(Z))-4,8-Dihydroxy-16-(1-chloro-2-(2-methyl-4-thiazolyl)ethenyl)-1-oxa-5,5,7,9,13-pentamethyl-cyclohexadec-13-ene-2,6-dione] |  |  |  | 37 | 7.3 | 5.1 |  |  |
| Cc1nc(/C=C(\F)[C@@H]2C[C@@H]3O[C@]3(C)CCC[C@H](C)[C@H](O)[C@@H](C)C(=O)C(C)(C)[C@@H](O)CC(=O)O2)cs1 [Example 3B, (1S,3S(Z),7S,10R,11S,12S,16R)-7,11-dihydroxy-3-(1-fluoro-2-(2-methyl-4-thiazolyl)ethenyl)-8,8,10,12,16-pentamethyl-4,17-dioxabicyclo[14.1.0]heptadecane-5,9-dione] | 1.4 | 4.7 | 0.3 |  |  |  |  | selectivity in multi-drug-resistant cell line NCl/ADR in comparison to epothilone B [1]: improved selectivity; active strength in comparison to reference compound epothilone B [2]: comparable or significantly higher active strength |
| Cc1nc(/C=C(\Cl)[C@@H]2C[C@@H]3O[C@]3(C)CCC[C@H](C)[C@H](O)[C@@H](C)C(=O)C(C)(C)[C@@H](O)CC(=O)O2)cs1 [Example 7A, (1S,3S(Z),7S,10R,11S,12S,16R)-7,11-Dihydroxy-3-(1-chloro-2-(2-methyl-4-thiazolyl)ethenyl)-8,8,10,12,16-pentamethyl-4,17-dioxabicyclo[14.1.0]heptadecane-5,9-dione] | 6 | 7.5 | 0.8 |  |  |  |  |  |

The next lines start with results.

| IC50 [1, 3] [nM] | Selectivity = IC50 (NCl/ADR) : IC50 (MCF-7) ([1]; Table 2) | IC50 [2, 3] [nM] | IC50 [1, 4] [nM] | Selectivity = IC50 (NCl/ADR) : IC50 (MCF-7) ([1]; Table 1) | IC50 [2, 4] [nM] | Compound | active strength in comparison to reference compound epothilone D [2] | further results |
| --- | --- | --- | --- | --- | --- | --- | --- | --- |
| 3.5 | 7.0 | 0.5 |  |  |  | CC[C@H]1C(=O)C2(CCC2)[C@@H](O)CC(=O)O[C@H](/C(F)=C/c2csc(C)n2)C[C@@H]2O[C@]2(C)CCC[C@H](C)[C@@H]1O [Example 14A, (1S,3S(Z),7S,10R,11S,12S,16R)-7,11-Dihydroxy-12,16-dimethyl-10-ethyl-3-(1-fluoro-2-(2-methyl-4-thiazolyl)ethenyl) 8,8-(1,3-trimethylene)-4,17-dioxabicyclo[14.1.0]hepta-decane-5,9-dione] |  | active strength in comparison to reference compound epothilone B [2]: comparable or significantly higher active strength |
|  |  |  | 10 | 2.0 | 5 | C/C1=C/C[C@@H](/C(F)=C/c2csc(C)n2)OC(=O)C[C@H](O)C2(CCC2)C(=O)[C@H](C)[C@@H](O)[C@@H](C)CCC1 [Example 9] | significantly higher active strength |  |
| 4.6 | 7.6 | 0.6 |  |  |  | CC[C@H]1C(=O)C(C)(C)[C@@H](O)CC(=O)O[C@H](/C(F)=C/c2ccccn2)C[C@@H]2O[C@]2(C)CCC[C@H](C)[C@@H]1O [Example 20A, (1S,3S(Z),7S,10R,11S,12S,16R)-7,11-Dihydroxy-10-ethyl-3-(1-fluoro-2-(2-pyridyl)ethenyl)-8,8,12,16-tetramethyl-4,17-dioxabicyclo[14.1.0]heptadecane-5,9-dione] |  | active strength in comparison to reference compound epothilone B [2]: comparable or significantly higher active strength |
| > 100 | >>25 |  |  | >>25 |  | CC(=O)O[C@H]1C(=O)[C@@]2(C)[C@H]([C@H](OC(=O)c3ccccc3)[C@]3(O)C[C@H](OC(=O)[C@H](O)[C@@H](NC(=O)c4ccccc4)c4ccccc4)C(C)=C1C3(C)C)[C@]1(OC(C)=O)CO[C@@H]1C[C@@H]2O [Taxol, reference compound] |  | IC50 ([1]; Homo sapiens, Table 1, 13Z-olefins, in comparison to epothilone D): > 100 nM; IC50 ([2]; Homo sapiens, MCF7, Table 1, 13Z-olefins, in comparison to epothilone D): 4 nM |
|  |  |  | 33 | 5.4 | 6.1 | CC[C@H]1C(=O)C(C)(C)[C@@H](O)CC(=O)O[C@H](/C(F)=C/c2ccccn2)C/C=C(/C)CCC[C@H](C)[C@@H]1O [Example 17, (4S,7R,8S,9S,13Z,16S(Z))-4,8-Dihydroxy-16-(1-fluoro-2-(2-pyridyl)ethenyl)-7-ethyl-1-oxa-5,5,9,13-tetramethyl-cyclohexadec-13-ene-2,6-dione] | significantly higher active strength |  |
| 3.9 | 1.9 | 2.1 |  |  |  | Cc1nc(C=C(F)C2CC3OC3(C)CCCC(C)C(O)C(C)C(=O)C3(CCC3)C(O)CC(=O)O2)cs1 [Example 10A, (1S,3S(Z),7S,10R,11S,12S,16R)-7,11-Dihydroxy-3-((1-fluoro)-2-(2-methyl-4-thiazolyl)ethenyl)-10,12,16-trimethyl-8,8-(1,3-trimethylene)-4,17-dioxabicyclo[14.1.0]hepta-deca-5,9-dione] |  | selectivity in multi-drug-resistant cell line NCl/ADR in comparison to epothilone B [1]: improved selectivity |
|  |  |  | 28 | 4.8 | 5.8 | (4S,7R,8S,9S,13(Z),16S(Z)-4,8-Dihydroxy-9,13-diethyl-7-ethyl-16-(1-fluoro-2-(2-methyl-4-thiazolyl)ethenyl)-1-oxa-5,5-(1,3-trimethylene)cyclohexadec-13-ene-2,6-dione [Example 13] | significantly higher active strength |  |
